Laboratory results reported in patent US20260286396A1, “AXL KNOCK OUT CAR T CELLS AND METHODS FOR USE THEREOF” (priority 2023, published 2026).

Test system: CART19 cells
Assay: RNA sequencing of CART19 cells with Ingenuity pathway analysis (pathways, upstream regulators)
Format: cell-based, human
Conditions: CART19+JeKo-1, 30 nM TP-0903 vs vehicle, 24 h
Protocol: CART19 cells were isolated using CD4 and CD8 microbeads to […] the JeKo-1 target cells; this isolation step was performed twice to eliminate the possible contamination of JeKo-1 cells. RNA was isolated from the CART19 cells using QIAGEN RNEASY® Plus Mini Kit. RNA was further treated with DNase I (QIAGEN) and purified using RNA Clean & Concentrator (Zymo Research). […] The fastq files were viewed in FastQC to check for quality (Cox et al., Mol Ther., 29 (4): 1529-1540, 2020). After verifying the lack of adapter sequences with FastQC, Cutadapt (Martin, EMBnet, 17:10-12, 2011) was used to filter for reads greater than 32 base pairs. Output files were re-checked for quality using FastQC. The latest human reference genome (GRCh38.p13) was downloaded from NCBI. Genome index files were generated using STAR (Cox et al. 2020, supra, and Dobin et al., Bioinformatics, 29:15-21, 2012). Paired end reads from fastq files were mapped to the genome for each condition. HTSeq was used to generate expression counts for each gene (Cox et al. 2020, supra; and Putri et al., Bioinformatics, 38:2943-2945, 2022). […] The disruption efficiency of the CRISPR/Cas9 GM-CSF knockout was determined using targeted sequencing through PCR and TIDE analysis (software available at tide.nki.nl) as described elsewhere (Sakemura et al. 2021, supra).
RNA sequencing of CART19 cells was then performed. […] Data were analyzed with the use of QIAGEN Ingenuity Pathway Analysis (IPA) (digitalinsights.qiagen.com/IPA; Krämer et al., Bioinformatics 30 (4): 523-530, 2014).

CN1CCN(Cc2ccc(Nc3ncc(Cl)c(Nc4ccccc4S(=O)(=O)N(C)C)n3)cc2)CC1 [TP-0903, Dubermatinib]
ABCG1 Expr Log Ratio: −0.301 | ADORA2A Expr Log Ratio: 0.629 | ADRA1B Expr Log Ratio: −0.268 | AGPAT2 Expr Log Ratio: 0.051 | ALDH2 Expr Log Ratio: −0.892 | APP Expr Log Ratio: 0.132 | ARHGAP5 Expr Log Ratio: 0.025 | ARNT Expr Log Ratio: −0.009 | ATF3 Expr Log Ratio: −0.209 | ATF4 Expr Log Ratio: −0.52 | BCAP31 Expr Log Ratio: 0.118 | BCL3 Expr Log Ratio: 0.097 | BCL6 Expr Log Ratio: 0.021 | BMP7 Expr Log Ratio: −0.942 | BMP10 Expr Log Ratio: −1.585 | BTK Expr Log Ratio: −0.323 | C3 Expr Log Ratio: 0.511 | CALCA Expr Log Ratio: −1.865 | CCND1 Expr Log Ratio: −0.129 | CCR3 Expr Log Ratio: −0.728 | CD2 Expr Log Ratio: 0.318 | CD5 Expr Log Ratio: 0.33 | CD28 Expr Log Ratio: 0.407 | CD38 Expr Log Ratio: −0.087 | CD40LG Expr Log Ratio: 0.131 | CD44 Expr Log Ratio: 0.428 | CD48 Expr Log Ratio: 0.067 | CD274 Expr Log Ratio: −0.506 | COMMD1 Expr Log Ratio: 0.174 | DUSP10 Expr Log Ratio: 0.211 | EBF1 Expr Log Ratio: −0.235 | EDN1 Expr Log Ratio: −0.099 | EIF2AK4 Expr Log Ratio: −0.2 | EPX Expr Log Ratio: −0.176 | ERBB2 Expr Log Ratio: −0.057 | FHL2 Expr Log Ratio: 0.639 | FMR1 Expr Log Ratio: 0.099 | FYN Expr Log Ratio: 0.259 | GAS5-AS1 Expr Log Ratio: −0.022 | GNA14 Expr Log Ratio: −2.841 | HAVCR1 Expr Log Ratio: −0.121 | IGF1 Expr Log Ratio: −0.149 | IGF1R Expr Log Ratio: −0.155 | IKBKB Expr Log Ratio: −0.036 | IKZF2 Expr Log Ratio: −0.318 | IL4R Expr Log Ratio: 0.093 | IL10 Expr Log Ratio: −0.008 | IL15 Expr Log Ratio: 0.191 | IL18 Expr Log Ratio: 0.03 | IL21 Expr Log Ratio: −0.452 | INSIG1 Expr Log Ratio: −0.836 | IRF4 Expr Log Ratio: −0.587 | ITGB2 Expr Log Ratio: 0.114 | KDM1A Expr Log Ratio: 0.09 | KRAS Expr Log Ratio: 0.11 | LEF1 Expr Log Ratio: 0.105 | LGALS3 Expr Log Ratio: −0.014 | LTA Expr Log Ratio: 0.37 | LTBR Expr Log Ratio: 0.08 | MAPK3 Expr Log Ratio: −0.166 | MAPK7 Expr Log Ratio: −0.017 | MBP Expr Log Ratio: 0.105 | MED1 Expr Log Ratio: −0.112 | MIR-29 Expr Log Ratio: −3.808 | MYB Expr Log Ratio: −0.03 | MYDGF Expr Log Ratio: −0.06 | NFATC1 Expr Log Ratio: 0.232 | NFE2L2 Expr Log Ratio: 0.172 | NFIL3 Expr Log Ratio: −0.13 | NFKBIA Expr Log Ratio: 0.173 | NPAT Expr Log Ratio: −0.021 | NR4A2 Expr Log Ratio: 0.982 | NREP Expr Log Ratio: −0.21 | PAF1 Expr Log Ratio: 0.135 | PDCD1 Expr Log Ratio: 0.967 | POU2F1 Expr Log Ratio: −0.356 | PRDM1 Expr Log Ratio: −0.006 | PRKCZ Expr Log Ratio: 0.36 | PTEN Expr Log Ratio: 1.201 | PTPRJ Expr Log Ratio: 0.044 | RAD21L1 Expr Log Ratio: 0.844 | RAMP1 Expr Log Ratio: −0.296 | RRP1B Expr Log Ratio: −0.087 | RXRA Expr Log Ratio: −0.75 | SATB2 Expr Log Ratio: −0.715 | SIRT6 Expr Log Ratio: −0.028 | SMAD2 Expr Log Ratio: −0.395 | SMAD7 Expr Log Ratio: 0.057 | SMC1B Expr Log Ratio: −0.146 | SNCA Expr Log Ratio: 1.134 | SORL1 Expr Log Ratio: 0.047 | SPI1 Expr Log Ratio: −0.215 | SREBF1 Expr Log Ratio: −0.191 | SREBF2 Expr Log Ratio: −0.048 | STAG3 Expr Log Ratio: −0.19 | STARD7 Expr Log Ratio: −0.076 | SUCNR1 Expr Log Ratio: −1.022 | TEAD3 Expr Log Ratio: −0.396 | TERT Expr Log Ratio: −0.599 | TGFB1 Expr Log Ratio: −0.094 | TGFB3 Expr Log Ratio: 0.178 | TGFBR2 Expr Log Ratio: 0.18 | TLR2 Expr Log Ratio: 0.013 | TLR7 Expr Log Ratio: −1.275 | TNFRSF4 Expr Log Ratio: 0.263 | TNFSF15 Expr Log Ratio: 1.42 | TPH1 Expr Log Ratio: 0.019 | TRAF3 Expr Log Ratio: 0.022 | WNT5B Expr Log Ratio: −0.491 | YAP1 Expr Log Ratio: −0.546 | upstream regulator ABCG1 Activation Z-Score: 1.387 | upstream regulator ADORA2A Activation Z-Score: −0.245 | upstream regulator AGPAT2 Activation Z-Score: 1
